Experiments:
MT-MMP [1] = assay: Thiopeptolide assay of cell-associated gelatinase activity ascribed to MT-MMP in TM cells; assay type: cell-based, Rhesus monkey; conditions: for Percent Activation Over control value: 48 hours incubation, OD 410 nm vs CACM control
Procedure: Two days before molecule testing, the medium is replace by a defined, serum-free medium such as Minimum Essential Medium (MEM) containing defined supplements as described by Schachtschabel and Binninger, Z.f.Gerontol. […] Unless specifically noted, all molecules tested were prepared as stock solutions in dimethyl sulfoxide (DMSO) with a final concentration of 10 mg/ml. The stocks were stored in a dessicator at −20 degrees Celsius. In testing the molecules, the molecules were diluted to final concentrations of 0.3 ug/ml and 15 ug/ml in a simplified culture medium based on Ames' medium, called Concanavalin A (Con A) conditioning medium (CACM). The monkey TM cells were incubated with the test molecules for 48 hours. Control medium of CACM plus DMSO and a positive control with 5 ug/ml Con A plus DMSO were run in parallel. […] Next 100 uL of a doubly (2×) concentrated mixture of the thiopeptolide substrate (from a forty times (40×) concentrated DMSO stock, to give 1 mmol/L final concentration) freshly combined with the thiol reagent (5,5′dithiobis(2-nitrobenzoic acid (DTNB) from a twenty times (20×) concentrated DMSO stock to give 1 mmol/L) were added to each well and were incubated at 37 degrees Celsius for two hours with gentle agitation.
At the end of the incubation period, by means of a spectrophoto-metric plate reader, the optical density (OD) at 410 nm was determined for each well after automatic subtraction of a blank value for a well containing reaction mixture but without cells. The average OD at the two-hour end point for each test molecule at all concentrations in triplicate was calculated. This calculation was interpreted to be a measure of cell-associated MT-MMP level, equivalently defined as either its activity (a catalytic property of the enzyme) or expression (number of functional molecules). The percent difference in OD for each sample compared to the CACM control reflects the effectiveness of each test molecule or combination of molecules in eliciting increases in MT-MMP levels. As an alternate to the end point OD reading, one may use the mean rate of appearance of the reaction product (mean V), calculated from the best linear fit of the data to absorbance vs. time.
TM cells were exposed to molecules and combinations of molecules by means of simultaneous addition, from separate stocks, to incubation medium.

MT-MMP [2] = assay: Co-activation thiopeptolide assay (test compound with Con A or a second test compound) in TM cells; assay type: cell-based, Rhesus monkey
Source text: Concanavalin A (Con A) binds to mannose groups on cell membrane gycoproteins. Because of its tetravalent nature, Con A binding leads to oligomerization of these “receptors,” possibly in the form of heterogeneous aggregates. Con A stimulation elicits increased expression of MT-MMP with concomitant ability to activate proGelA. The response, as measured by the magnitude of zymographic bands and by thiopeptolide assay, is dose-dependent. Thus the effects of co-activation using a submaximal dose of Con A plus treatment with a small molecule that may or may not be active by itself, are measured in the subject activation assay.
For the coactivation assays, following the preliminary steps set forth above preceding incubation with test compounds in Example 1, cells subsequently undergo one of the following protocols. • Protocol 1. Cells are incubated with a particular test compound for twenty-four hours. This incubation period is followed by a second twenty-four hour incubation period, in which the culture medium containing the first test compound is completely replaced by medium containing 5 ug/ml Con A. • Protocol 2. Cells are incubated with a particular first test compound for twenty-four hours, followed by a second forty-eight hour incubation in which the medium containing the first test compound is completely replaced by medium containing either Con A, as described above, or a second test compound. • Protocol 3. Cells are incubated with a combination of a test compound together with 5 ug/ml Con A for forty-eight hours.
Two controls, with or without 5 ug/ml Con A are run in parallel as described in Example 1. After incubation with these agents, cells are processed in equivalently to those in Example 1. Instead of comparison of the OD values with a CACM control, the results are compared with samples using Con A alone, or with a single test compound as described in Protocol 2 above, as set forth in Table 5 below.

MT1-MMP [3] = conditions: human cervical fibroblasts; Ito et al. 1998; cited from earlier work
MT1-MMP [4] = conditions: Alexander and Acott 1999; cited from earlier work

COc1ccc(/C(C#N)=N/OC(=O)N2CCCCC2)cc1OC [Molecule 1]
Percent Activation Over control value (MT-MMP [1]; Conc. 0.9 umol/L): 48.1%
Percent Activation Over control value (MT-MMP [1]; Conc. 47.31 umol/L): 260.4%

N#C/C(=N\OC(=O)N1CCCCC1)c1c(F)cccc1F [Molecule 2]
Percent Activation Over control value (MT-MMP [1]; Conc. 1.0 umol/L): 33.8%
Percent Activation Over control value (MT-MMP [1]; Conc. 51.1.1 umol/L): 420.5%

CC(C)N(CC(O)COc1cccc2ccccc12)C(N)=O (stereo not shown) [Molecule 4]
Percent Activation Over control value (MT-MMP [1]; Conc. 1.0 umol/L): 5.9%
Percent Activation Over control value (MT-MMP [1]; Conc. 49.6 umol/L): 73.4%

CC(C)N(CCCOc1cccc2ccccc12)C(N)=O [Molecule 6]
Activity (% increase over Con A above, or as otherwise noted) (MT-MMP [2]; Protocol 1 (24 h test compound, then 24 h 5 ug/ml Con A), Conc. 104.8 umol/L with Con A): 183.9%
Activity (% increase over Con A above, or as otherwise noted) (MT-MMP [2]; Protocol 2 (24 h test compound, then 48 h Con A), Conc. 34.9 umol/L with Con A): 49.0%
Activity (% increase over Con A above, or as otherwise noted) (MT-MMP [2]; Protocol 2 (24 h test compound, then 48 h Con A), Conc. 100.0 umol/L with Con A): 70.9%
Percent Activation Over control value (MT-MMP [1]; Conc. 1.0 umol/L): 2.2%
Percent Activation Over control value (MT-MMP [1]; Conc. 52.4 umol/L): 207.9%

CNC(=O)N(CCOc1cccc(Cl)c1Cl)C(C)C [Molecule 7]
Activity (% increase over Con A above, or as otherwise noted) (MT-MMP [2]; Protocol 2 (24 h test compound, then 48 h Con A), Conc. 49.1 umol/L with Con A): 59.8%
Percent Activation Over control value (MT-MMP [1]; Conc. 1.0 umol/L): (−7.9) Percent
Percent Activation Over control value (MT-MMP [1]; Conc. 49.2 umol/L): 274.0%

Cc1cccc(Cl)c1/C=N/NC(=N)N [Molecule 8]
Percent Activation Over control value (MT-MMP [1]; Conc. 2.6 umol/L): 2.9%
Percent Activation Over control value (MT-MMP [1]; Conc. 12.98 umol/L): 12.7%
Percent Activation Over control value (MT-MMP [1]; Conc. 64.91 umol/L): 54.3%
Percent Activation Over control value (MT-MMP [1]; Conc. 129.81 umol/L): 106.8%

CC/C(=N\NC(=N)N)c1ccccc1 [Molecule 9]
Percent Activation Over control value (MT-MMP [1]; Conc. 1.18 umol/L): 21.4%
Percent Activation Over control value (MT-MMP [1]; Conc. 118.44 umol/L): 82.4%

CSC(=N)N/N=C/c1c(Cl)cccc1Cl [Molecule 11]
Percent Activation Over control value (MT-MMP [1]; Conc. 1.14 umol/L): (−20.9) Percent
Percent Activation Over control value (MT-MMP [1]; Conc. 57.22 umol/L): 88.1%

N=C(N)NNC(O)c1c(Cl)cccc1Cl (stereo not shown) [Molecule 12]
Percent Activation Over control value (MT-MMP [1]; Conc. 1.05 umol/L): 3.2%
Percent Activation Over control value (MT-MMP [1]; Conc. 52.53 umol/L): 101.6%

CC(C#N)c1ccc2c(c1)N(C)C1C=CC=CC1S2 (stereo not shown) [Molecule 13]
Activity (% increase over Con A above, or as otherwise noted) (MT-MMP [2]; Protocol 1 (24 h test compound, then 24 h 5 ug/ml Con A), Conc. 1.1 umol/L with Con A): 18.1%
Activity (% increase over Con A above, or as otherwise noted) (MT-MMP [2]; Protocol 1 (24 h test compound, then 24 h 5 ug/ml Con A), Conc. 55.9 umol/L with Con A): 109.5%
Percent Activation Over control value (MT-MMP [1]; Conc. 1.1 umol/L): 74.6%
Percent Activation Over control value (MT-MMP [1]; Conc. 55.9 umol/L): 68.5%

NC(=O)N1c2ccccc2C=Cc2ccccc21 [Molecule 14]
Percent Activation Over control value (MT-MMP [1]; Conc. 1.27 umol/L): 7.7%
Percent Activation Over control value (MT-MMP [1]; Conc. 63.49 umol/L): 115.6%

NCCCCCCNS(=O)(=O)c1cccc2c(Cl)cccc12 [Molecule W-7]
MT1-MMP-induced activation of Gelatinase A (GelA) (MT1-MMP [3]): not particularly pronounced

CCCCCCCCCCCCCC(=O)O[C@@H]1[C@@H](C)[C@@]2(O)[C@@H](C=C(CO)C[C@]3(O)C(=O)C(C)=C[C@@H]23)[C@@H]2C(C)(C)[C@]12OC(C)=O [phorbol ester, phorbol 12-myristate 13-acetate]
Expression of MT1-MMP (MT1-MMP [4]): increased expression of MT1-MMP

CN1CCN(CCCN2c3ccccc3Sc3ccc(C(F)(F)F)cc32)CC1 [trifluoperazine]
MT1-MMP-induced activation of Gelatinase A (GelA) (MT1-MMP [3]): resulted in MT1-MMP-induced activation of Gelatinase A

Concanavalin A [Con A, reference compound]
Increased expression of MT-MMP on Con A stimulation (response) (MT-MMP [1]; measured by magnitude of zymographic bands and by thiopeptolide assay): dose-dependent

Reference: patent US7071211B2, “Small organic molecules that increase the activity of gelatinase a in ocular cells” (Bausch & Lomb Inc., priority 2002, dated 2006)
